Test results: the NIST ThermoML archive (doi:10.1016/j.fluid.2013.10.011)
± gives the expanded uncertainty stated by the source.

Conditions: Crystal; visual observation

Normal melting temperature: 99.50 ± 1.6 °C
SMILES: O=C(O)C[C@H](O)C(=O)O [l-hydroxysuccinic acid]
